Literature values as cited in publication PMC9943811 (Diabetes Therapy, 2022).

Conditions: ref [19], [20]

terminal half-life: around 12 h
Structure (SMILES): N[C@@H](CC(=O)N1CCn2c(nnc2C(F)(F)F)C1)Cc1cc(F)c(F)cc1F [sitagliptin]
